From PMC10286459 (Cell & Bioscience, 2023) come the findings set out here.

For one data set, the system named is MDA-MB-231 cells. The experiment in a line: Half-life of biotin-labeled peptides in living cells (Western blotting). It is filed as in vitro ADME, human. The following applies: biotin-labeled peptide 20 µM for 2 h, then fresh medium, cells collected 0-48 h, β-actin loading control. Here is the method:
(§1) SDS-PAGE gel electrophoresis and Coomassie brilliant blue staining were performed to measure peptide stability. […] Cells were collected at different post-treatment time points (0, 1, 2, 4, 8, 16, 24, 36, 48 h). […] D The docking of peptide P22 (106–126) to the FOXM1 C-terminus (PDB ID 6OSW) was created by Rosetta FlexPepDock and PyMOL. Left, the interface of peptide-protein interaction, the peptide was shown in cyan, and the C-terminus of FOXM1 was shown according to its electrostatic potential. Right, hydrogen bonds are formed by residues at the interface of peptide and protein interaction. […] Streptavidin magnetic beads were added to lysates to pull down the biotin-peptides/protein complexes. […] M1-21mut was used as the control.

Data set [1] addresses T1, Flag-GFP-FOXM1(688–748) protein (Homo sapiens, UniProt Q08050).
T1 construct: expressing exogenous Flag-GFP-FOXM1(688-748) protein; expressed in transfected cells; host or cells: 293T (HEK-293T) cell lysates
T1 sequence (Q08050 688-748 isoform Q08050-2): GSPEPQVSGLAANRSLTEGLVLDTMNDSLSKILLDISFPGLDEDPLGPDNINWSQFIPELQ
The experiment in a line: Biotin-peptide Pulldown with Streptavidin Magnetic Beads. It is filed as binding. The note with it: biotin-labeled peptide, 293T cell lysates (500 µg) expressing Flag-GFP-FOXM1(688–748); Western Blotting. The text has this: Fig. 1 Screening of TAT-106-126 peptide targeting FOXM1 protein. A An in silico peptide library (P1 to P24, 21-mer) was created from the FOXM1 N-terminus sequence (1-138aa) with a 5 amino acid shift window. The peptide candidates binding to FOXM1 C-terminus (PDB ID 6OSW) were selected by Rosetta FlexPepDock simulation and InterfaceAnalyzer calculation according to docking free energy (dG). B P20, P21, and P22 fused with the cell-penetrating TAT sequence (TAT-96-116, TAT-101-121, and TAT-106-126) were produced by solid-phase peptide synthesis. […] Data points indicated the fraction of GFP-M1(688–748)-bound peptides (ΔFNormal/Amplitude) at different concentrations and curves indicated the calculated fits. The error bars represented the standard error of three independent measurements. […] 48 h Later, trypan blue (0.4%) was added to each well for 3 min and the cells were fixed to 4% paraformaldehyde for imaging. […] The mean IC50 value (µM) for each peptide was obtained from three replicates. D The TAT-106-126 peptide was biotin-labeled and added to 293T cell lysates (500 µg) expressing exogenous Flag-GFP-FOXM1(688–748) protein. The lysates were incubated with Streptavidin magnetic beads to pull down biotin-peptide/protein complexes. Biotin and Flag-GFP-FOXM1(688–748) protein in samples were detected by Western Blotting. […] E Biotin-labeled TAT-106-126 or TAT was added to 293T cell lysates (500 µg). The lysates were incubated with Streptavidin magnetic beads to pull down biotin-peptide/protein complexes. Biotin and endogenous FOXM1 protein were detected by Western Blotting.
A Biotin-labeled peptides TAT-96-116, TAT-101-121, and TAT-106-126 were added to 293T cell lysates (500 µg) expressing exogenous Flag-GFP-FOXM1(688-748) protein (or Flag-GFP control lysates). The lysates were incubated with Streptavidin magnetic beads to pull down biotin-peptide/protein complexes. Biotin and Flag-GFP-FOXM1(688-748) protein in samples were detected by Western Blotting. […] Biotin and exogenous FOXM1 protein were detected by Western Blotting.

For a further data set, the target named is T2, full-length FOXM1 (Homo sapiens, UniProt Q08050).
T2 sequence (Q08050 703-763 limits assumed): T1 sequence (Q08050 688-748 isoform Q08050-2)
The description is as above. The note with it: biotin-labeled peptide, cell lysates (500 µg) with endogenous or exogenous FOXM1; Western Blotting. Format: binding. On the procedure:
as §1

Data set [2] has as its target T3, interaction between FOXM1 and PLK1 (Homo sapiens, UniProt Q08050).
T3 construct: expressed in transfected cells; host or cells: MDA-MB-231 stably infected with pLVX-TetOne-Flag-FOXM1b lentivirus (231-Flag-FOXM1-Ind), doxycycline-induced
The experiment in a line: Co-IP in 231-Flag-FOXM1-Ind cells. It is filed as cell-based. The following applies: doxycycline 200 ng/mL 24 h, M1-21 10, 20 µM or TAT-106-126 20, 40, 80 µM for 6 h. The text has this: Number of repetitions = 3. […] Number of repetitions = 3. […] Number of repetitions = 3. […] GAPDH was used as a loading control.

No end group written: not given here.

T3 sequence (Q08050 1-748 isoform Q08050-2): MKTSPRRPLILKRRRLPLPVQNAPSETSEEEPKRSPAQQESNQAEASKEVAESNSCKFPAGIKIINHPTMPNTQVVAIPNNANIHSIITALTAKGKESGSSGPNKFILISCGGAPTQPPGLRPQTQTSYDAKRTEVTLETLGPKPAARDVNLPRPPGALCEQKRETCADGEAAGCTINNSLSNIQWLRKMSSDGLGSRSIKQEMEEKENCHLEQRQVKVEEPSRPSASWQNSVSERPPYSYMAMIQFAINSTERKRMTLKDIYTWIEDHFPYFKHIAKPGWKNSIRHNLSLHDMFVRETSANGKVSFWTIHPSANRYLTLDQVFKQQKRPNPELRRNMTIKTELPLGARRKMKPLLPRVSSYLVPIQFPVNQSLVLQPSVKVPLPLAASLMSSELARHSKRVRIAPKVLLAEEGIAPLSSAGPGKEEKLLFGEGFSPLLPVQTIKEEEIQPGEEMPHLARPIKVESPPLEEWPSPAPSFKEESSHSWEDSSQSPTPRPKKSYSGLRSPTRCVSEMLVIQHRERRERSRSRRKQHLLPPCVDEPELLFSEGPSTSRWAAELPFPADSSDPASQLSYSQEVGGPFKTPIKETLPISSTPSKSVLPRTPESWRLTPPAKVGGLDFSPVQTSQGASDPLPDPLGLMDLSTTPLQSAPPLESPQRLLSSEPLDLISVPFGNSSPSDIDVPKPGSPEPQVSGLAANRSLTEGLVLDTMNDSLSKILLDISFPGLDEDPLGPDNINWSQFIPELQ

“GRKKRRQRRRFILISCGGAPTQPPGLRPQTQ [TAT-106-126]”: the “Half-life in living MDA-MB-231 cells” value in the data set with MDA-MB-231 cells was found to be 6.2 h. Further, the “binding to FOXM1 C-terminus in Pulldown” value in data set [1] is recorded as “capable of binding”. On full-length FOXM1, the “binding to full-length FOXM1 in Pulldown” value is listed as “capable of binding”. Besides, the “interaction between FOXM1 and PLK1 (Co-IP)” value in data set [2] was “comparable activity to M1-21”.
“GRKKRRQRRRKESGSSGPNKFILISCGGAPT [TAT-96-116]”: the “binding to FOXM1 C-terminus in Pulldown” value in data set [1] is recorded as “interacted”. For the same sequence, the “binding to full-length FOXM1 in Pulldown” value at full-length FOXM1 is “neither of them effectively bound”.
For “GRKKRRQRRRSGPNKFILISCGGAPTQPPGL [TAT-101-121]”, the “binding to FOXM1 C-terminus in Pulldown” value in data set [1] is recorded as “interacted”. Besides, on full-length FOXM1, the “binding to full-length FOXM1 in Pulldown” value is recorded as “neither of them effectively bound”.
